Assay results reported in article PMC11355796, “Blue and Yellow Laccases from Alternaria sp. Strain HU: Characterization and Immobilization on Magnetic Nanoparticles” (Journal of Fungi, 2024).
Where a name gives a salt, the structure may show the parent alone.

Experiments:
[1] = test system: T1, LacHU1; test: initial-rate oxidation assay, Michaelis-Menten fit; assay type: biochemical, Alternaria sp. HU; details: free enzyme; apparent constant; read-out: Kinetic Parameters / KM, μM / LacHU1
T1 construct: native secreted enzyme purified from culture liquid; signal peptide of 18 residues
Text: initial-rate oxidation assay, Michaelis-Menten fit on LacHU1

[2] = test system: T2, LacHU2; test: initial-rate oxidation assay, Michaelis-Menten fit; assay type: biochemical, Alternaria sp. HU; details: free enzyme; apparent constant; read-out: Kinetic Parameters / KM, μM / LacHU2
T2 construct: native secreted enzyme purified from culture liquid; signal peptide of 18 residues
Text: initial-rate oxidation assay, Michaelis-Menten fit on LacHU2

Row | SMILES | Km [1] [µM] | Km [2] [µM]
1 | COc1cccc(OC)c1O [2,6-DMP] | 10 ± 2 | 4300
2 | COc1cc(/C=C/C(=O)O)ccc1O [Ferulic acid] | 50 ± 4 | 230 ± 30
3 | O=c1c(O)c(-c2cc(O)c(O)c(O)c2)oc2cc(O)cc(O)c12 [Myricetin] | 2 ± 0.3 | –
4 | OCCN1c2ccccc2Oc2ccccc21 [2-(10H-phenoxazin-10-yl)ethanol] | 40 ± 10 | 200 ± 50
5 | Oc1ccccc1O [Catechol] | – | 20000
6 | CN(C)CCCN1c2ccccc2Sc2ccccc21 [Promazine hydrochloride] | – | 2600
7 | O=C(O)/C=C/c1ccc(O)c(O)c1 [Caffeic acid] | 50 ± 3 | 400 ± 30
8 | O=c1c(O)c(-c2ccc(O)c(O)c2)oc2cc(O)ccc12 [Fisetin] | 15 ± 1 | –
9 | CCn1c(=NN=c2sc3cc(S(=O)(=O)O)ccc3n2CC)sc2cc(S(=O)(=O)O)ccc21 [ABTS, 2,2’-azino-bis(3-ethylbenzothiazoline-6-sulfonic acid) diammonium salt] | 60 ± 10 | 5600
10 | COc1cc(C=NN=Cc2cc(OC)c(O)c(OC)c2)cc(OC)c1O [Syringaldazine] | 1 ± 0.1 | –
11 | Oc1ccc(O)cc1 [Hydroquinone] | – | 13000
12 | Nc1ccc(N)cc1 [p-Phenylenediamine] | – | 3600
13 | O=C(/C=C/c1ccc(O)c(O)c1)O[C@@H]1C[C@](O)(C(=O)O)C[C@@H](O)[C@H]1O [Chlorogenic acid] | – | 90 ± 40
14 | COc1cc(C(=O)O)cc(OC)c1O [Syringic acid] | 40 ± 0.5 | –
15 | O=c1c(O)c(-c2ccc(O)c(O)c2)oc2cc(O)cc(O)c12 [Quercetin] | 2 ± 0.4 | –
